Experimental data reported in the supplement of paper PMC10307832.

Legend:
Test in all cases: relative viability (nuclei count vs DMSO), 5 days (fraction); higher = more cells survive
[1] = compound: NS(=O)(=O)OC[C@@H]1C[C@@H](n2ccc3c(N[C@H]4CCc5ccccc54)ncnc32)C[C@@H]1O [MLN4924] + CC(=O)c1c(C)c2cnc(Nc3ccc(N4CCNCC4)cn3)nc2n(C2CCCC2)c1=O [Palbociclib] (partner 0.5 µM)
In short: (§1)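 Five library-drug doses in √10 steps were combined with a fixed anchor-drug dose, or a single drug was given alone, by pin tool to lung cancer cell lines in 1536-well plates the day after seeding. Nuclei were stained and counted after 5 days. Relative viability is the nuclei count in treated wells over that in vehicle wells, taken as the median of duplicate plates.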

[2] = compound: NS(=O)(=O)OC[C@@H]1C[C@@H](n2ccc3c(N[C@H]4CCc5ccccc54)ncnc32)C[C@@H]1O [MLN4924] + O=C(CCCCCCC(=O)Nc1ccccc1)NO [Vorinostat] (partner 1 µM)
In short: as §1

[3] = compound: CC[C@H](C)N1C=C(C2=C(C=C(C=C21)C3=CN=C(C=C3)N4CCNCC4)C(=O)NCC5=C(C=C(NC5=O)C)C)C [GSK126] + Nc1ncn([C@H]2C[C@H](O)[C@@H](CO)O2)c(=O)n1 [Decitabine] (partner 2 µM)
In short: as §1

[4] = compound: CC[C@H](C)N1C=C(C2=C(C=C(C=C21)C3=CN=C(C=C3)N4CCNCC4)C(=O)NCC5=C(C=C(NC5=O)C)C)C [GSK126] + Cc1nc(NC(=O)N2CCC[C@H]2C(N)=O)sc1-c1ccnc(C(C)(C)C(F)(F)F)c1 [Alpelisib] (partner 2 µM)
In short: as §1

Cell Line	relative viability ([1]; first compound 0.04 µM)	relative viability ([1]; first compound 0.1265 µM)	relative viability ([1]; first compound 0.4 µM)	relative viability ([1]; first compound 1.265 µM)	relative viability ([1]; first compound 4 µM)	relative viability ([2]; first compound 0.04 µM)	relative viability ([2]; first compound 0.1265 µM)	relative viability ([2]; first compound 0.4 µM)	relative viability ([2]; first compound 1.265 µM)	relative viability ([2]; first compound 4 µM)	relative viability ([3]; first compound 0.08 µM)	relative viability ([3]; first compound 0.253 µM)	relative viability ([3]; first compound 0.8 µM)	relative viability ([3]; first compound 2.53 µM)	relative viability ([3]; first compound 8 µM)	relative viability ([4]; first compound 0.08 µM)	relative viability ([4]; first compound 0.253 µM)	relative viability ([4]; first compound 0.8 µM)	relative viability ([4]; first compound 2.53 µM)	relative viability ([4]; first compound 8 µM)
SK-LU-1	0.467	0.43	0.253	0.195	0.202	0.581	0.425	0.161	0.196	0.244	0.711	0.535	0.6	0.928	0.708	1.01	1.11	1.2	1.18	1.03
EKVX	0.389	0.362	0.334	0.188	0.142	0.632	0.276	0.41	0.201	0.217	0.343	0.383	0.39	0.351	0.301	0.961	0.92	0.819	0.813	0.746
HCC-366	0.389	0.374	0.336	0.167	0.0328	0.327	0.348	0.322	0.0422	0.0392	0.34	0.34	0.336	0.463	0.338	0.452	0.342	0.381	0.546	0.409
NCI-H1650	0.286	0.221	0.19	0.131	0.136	0.411	0.352	0.22	0.109	0.176	0.437	0.541	0.522	0.402	0.495	–	–	–	–	–
